According to US4880809A, “1,4-disubstituted piperazines (or homopiperazines) as platelet-activating factor antagonists” (Takeda Chemical Industries, Ltd., priority 1987, dated 1989):
Counter-ions that a name gives are not always drawn.

Legend:
[1] = test system: PAF-Induced Platelet Aggregation; experiment: Inhibitory Action on PAF-Induced Platelet Aggregation; type: cell-based, New Zealand white male rabbits; conditions: Oryctolagus cuniculus, Drug Concentration: 3 × 10^-5 M, rabbit PRP
[2] = test system: PAF-Induced Hypotension; experiment: Inhibitory Action on PAF-Induced Hypotension; type: in vivo, SD (Jcl) male rats; conditions: po, rat; for inhibition in vivo at 30 mg/kg: 30 mg/kg p.o.; for inhibition in vivo at 3 mg/kg: 3 mg/kg p.o.; for inhibition in vivo at 10 mg/kg: 10 mg/kg p.o.
Description: SD (Jcl) male rats of 6 to 8 week old were subjected to the experiment. After fasting overnight, the rats were cannulated into the femoral artery and vein under anesthesia with pentobarbital. A transducer (MPU-0.5-290O-III, TOYO BALDWIN, Japan) was connected with the artery cannula, and blood pressure was continuously measured. […] The rate of inhibition of lowering of blood pressure after administration of the test samples against the control was evaluated.

## COc1ccc2c(c1)CCC(C(=O)N1CCN(Cc3cc(OC)c(OC)c(OC)c3)CC1)=C2 [Example 1, 1-(7-methoxy-1,2-dihydro-3-naphthoyl)-4-(3,4,5-trimethoxybenzyl)piperazinehydrochloride]
[1]
  inhibition at 30 µM: 100%

## COc1cc(CN2CCN(C(=O)c3ccc4ccccc4c3)CC2)cc(OC)c1OC [Example 7, 1-(2-naphthoyl)-4-(3,4,5-trimethoxybenzyl)piperazine hydrochloride]
[1]
  inhibition at 30 µM: 95%

## COc1cc(CN2CCN(C(=O)c3cccc4ccccc34)CC2)cc(OC)c1OC [Example 8, 1-(1-naphthoyl)-4-(3,4,5-trimethoxybenzyl)piperazine hydrochloride]
[1]
  inhibition at 30 µM: 84%

## COc1ccc2cc(C(=O)N3CCN(Cc4cc(OC)c(OC)c(OC)c4)CC3)ccc2c1 [Example 9, 1-(6-methoxy-2-naphthoyl)-4-(3,4,5-trimethoxybenzyl)piperazine hydrochloride]
[1]
  inhibition at 30 µM: 87%

## COc1cc(CN2CCN(C(=O)C3=Cc4cc(OC)c(OC)c(OC)c4CC3)CC2)cc(OC)c1OC [Example 10, 1-(6,7,8-trimethoxy-1,2-dihydro-3-naphthoyl)-4-(3,4,5-trimethoxybenzyl)piperazine hydrochloride]
[1]
  inhibition at 30 µM: 87%

## COc1cc2c(cc1OC)CC(C(=O)N1CCN(C(=O)c3cc(OC)c(OC)c(OC)c3)CC1)=C2 [Example 61, 1-(5,6-dimethoxy-1-H-inden-2-ylcarbonyl)-4-(3,4,5-trimethoxybenzoyl)piperazine]
[2]; after 1 hr
  inhibition in vivo at 30 mg/kg: 86%
[2]; after 2 hrs
  inhibition in vivo at 30 mg/kg: 82%
[2]; after 4 hrs
  inhibition in vivo at 30 mg/kg: 74%

## CCOc1cc2c(cc1OCC)CCCC(C(=O)N1CCN(C(=O)c3cc(OC)c(OC)c(OC)c3)CC1)=C2 [Example 73, 1-(2,3-diethoxy-6,7-dihydro-5H-benzocyclohepten-8-ylcarbonyl)-4-(3,4,5-trimethoxybenzoyl)piperazine]
[2]; after 1 hr
  inhibition in vivo at 30 mg/kg: 98%
[2]; after 2 hrs
  inhibition in vivo at 30 mg/kg: 98%
[2]; after 4 hrs
  inhibition in vivo at 30 mg/kg: 96%

## CCOc1c(OC)cc(C(=O)N2CCN(C(=O)C3=Cc4cc(OC)c(OC)cc4CCC3)CC2)cc1OC [Example 75, 1-(2,3-dimethoxy-6,7-dihydro-5H-benzocyclohepten-8-ylcarbonyl)-4-(3,5-dimethoxy-4-ethoxy-benzoyl)piperazine]
[2]; after 1 hr
  inhibition in vivo at 30 mg/kg: 61%
[2]; after 2 hrs
  inhibition in vivo at 30 mg/kg: 54%
[2]; after 4 hrs
  inhibition in vivo at 30 mg/kg: 61%

## COc1cc2c(cc1OC)CCCC(C(=O)N1CCN(C(=S)c3cc(OC)c(OC)c(OC)c3)CC1)=C2 [Example 76, 1-(2,3-dimethoxy-6,7-dihydro-5H-benzocyclohepten-8-ylcarbonyl)-4-(3,4,5-trimethoxythiobenzoyl)piperazine]
[2]; after 1 hr
  inhibition in vivo at 3 mg/kg: 72%
  inhibition in vivo at 30 mg/kg: 100%
[2]; after 2 hrs
  inhibition in vivo at 3 mg/kg: 69%
  inhibition in vivo at 30 mg/kg: 100%
[2]; after 4 hrs
  inhibition in vivo at 3 mg/kg: 60%
  inhibition in vivo at 30 mg/kg: 100%

## COc1cc(C(=O)N2CCN(C(=O)C3=Cc4ccc(OC)c(OC)c4CCC3)CC2)cc(OC)c1OC [Example 78, 1-(3,4-dimethoxy-6,7-dihydro-5H-benzocyclohepten-8-ylcarbonyl)-4-(3,4,5-trimethoxybenzoyl)piperazine]
[2]; after 1 hr
  inhibition in vivo at 30 mg/kg: 73%
[2]; after 2 hrs
  inhibition in vivo at 30 mg/kg: 57%
[2]; after 4 hrs
  inhibition in vivo at 30 mg/kg: 26%

## COc1cc2c(cc1OC)CC(C(=O)N1CCN(C(=O)c3cc(OC)c(OC)c(OC)c3)CC1)CC2 (centres unmarked) [Example 79]
[2]; after 1 hr
  inhibition in vivo at 30 mg/kg: 81%
[2]; after 2 hrs
  inhibition in vivo at 30 mg/kg: 88%
[2]; after 4 hrs
  inhibition in vivo at 30 mg/kg: 66%

## COc1cc2c(cc1OC)CC(C(=O)N1CCN(C(=O)c3cc(OC)c(OC)c(OC)c3)CC1)CCC2 (centres unmarked) [Example 86, 1-(2,3-dimethoxy-5,6,7,8-tetrahydrobenzocyclohepten-6-ylcarbonyl)-4-(3,4,5-trimethoxy-benzoyl)piperazine]
[2]; after 1 hr
  inhibition in vivo at 10 mg/kg: 90%
  inhibition in vivo at 30 mg/kg: 100%
[2]; after 2 hrs
  inhibition in vivo at 10 mg/kg: 92%
  inhibition in vivo at 30 mg/kg: 100%
[2]; after 4 hrs
  inhibition in vivo at 10 mg/kg: 92%
  inhibition in vivo at 30 mg/kg: 100%
